# Measured values: US20230234906A1, “Use of 2-pentanone and specific receptor thereof in manufacture of products regulating cell functions” (Taihe Hospital, Hubei University of Medicine, priority 2022, published 2023)
# Columns and labels:
# [1] = biological target: T1, specific receptor Or35a and the specific receptor Or83b (Drosophila melanogaster, UniProt Q9V3Q2+Q9VNB5); test: Calcium imaging experiment in mouse brain slices expressing the specific receptor of 2-pentanone; format: cell-based; conditions: addition of 2-pentanone; 150 μm brain slices of C57 mice injected with Or35a/Or83b overexpression virus and calcium imaging virus; confocal microscope; FIG. 4A
# T1 construct: P2A peptide (self-cleaving; remnant stays on the C-terminus of Or35a) (C); remnant stays on the C-terminus of Or83b) (C); expressed in transfected cells; acute brain slices
# T1 sequence (Q9V3Q2 1-409): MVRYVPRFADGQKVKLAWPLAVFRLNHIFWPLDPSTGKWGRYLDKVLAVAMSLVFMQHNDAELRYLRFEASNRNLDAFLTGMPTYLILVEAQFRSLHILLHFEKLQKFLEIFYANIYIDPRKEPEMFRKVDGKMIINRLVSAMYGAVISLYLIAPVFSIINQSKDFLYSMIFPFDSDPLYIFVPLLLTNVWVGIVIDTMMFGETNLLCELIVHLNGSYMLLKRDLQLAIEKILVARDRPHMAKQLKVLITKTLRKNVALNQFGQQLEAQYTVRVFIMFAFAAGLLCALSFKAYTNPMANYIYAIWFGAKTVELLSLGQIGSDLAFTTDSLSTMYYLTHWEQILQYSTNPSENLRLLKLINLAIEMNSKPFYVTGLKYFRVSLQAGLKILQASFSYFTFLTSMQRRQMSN
# T1 sequence (Q9VNB5 1-486): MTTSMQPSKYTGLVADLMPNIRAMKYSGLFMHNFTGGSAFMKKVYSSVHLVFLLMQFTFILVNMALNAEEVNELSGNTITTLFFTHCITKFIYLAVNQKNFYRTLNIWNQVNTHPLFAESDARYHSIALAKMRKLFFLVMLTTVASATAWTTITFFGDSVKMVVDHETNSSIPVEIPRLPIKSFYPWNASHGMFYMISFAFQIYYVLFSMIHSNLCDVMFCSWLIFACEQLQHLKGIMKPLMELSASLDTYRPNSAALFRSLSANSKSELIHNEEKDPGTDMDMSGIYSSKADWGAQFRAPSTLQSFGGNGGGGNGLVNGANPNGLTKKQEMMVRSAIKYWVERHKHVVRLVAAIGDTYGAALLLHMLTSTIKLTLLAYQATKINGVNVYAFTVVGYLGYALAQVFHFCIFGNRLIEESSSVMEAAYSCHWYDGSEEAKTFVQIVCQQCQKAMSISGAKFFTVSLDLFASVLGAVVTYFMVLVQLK
# Method: 1. Calcium imaging experiment: Adult C57 mice were anesthetized, fixed on a stereotaxic apparatus, and operated to expose the brain surface of the mice (1.5 mm behind the bregma, 1 mm aside, and injection depth of 2 mm). The overexpression virus (1 μl) constructed in Example 1 and the calcium imaging virus (0.5 μl) were simultaneously injected into the mouse brain using a microinjector. After 2 weeks of feeding, the brains of mice were removed. The brain tissues near the injection site were cut into 150 μm tissue slices using a vibrating microtome and placed in artificial cerebrospinal fluid with a mixture of 5% CO2 and 95% O2, and calcium imaging experiment was performed using a confocal microscope.
# [2] = Verification of the arrival of 2-pentanone in cerebrospinal fluid (HPLC-MS of blood and cerebrospinal fluid after inhalation); format: in vivo, rats
# Method: The specific method for detecting the arrival of 2-pentanone in cerebrospinal fluid in this test example included the following: rats were given 2-pentanone for 3 min, then blood and cerebrospinal fluid were drawn, immediately sealed and centrifuged at high speed to pellet red blood cells. The obtained cerebrospinal fluid and blood samples were subjected to HPLC-MS detection. Prior to detection, 100 μL of samples was taken and added with 400 μL of acetonitrile. The protein was separated by vortex and centrifuged at 14000 rpm for 10 min, and 100 μL of supernatant was used for HPLC-MS detection. […] It was confirmed by high performance liquid chromatography-mass spectrometry (HPLC-MS) that 2-pentanone could reach cerebrospinal fluid through blood rapidly (3 min) after inhaled by animals, and the concentration in cerebrospinal fluid decreased rapidly within 3-5 min after the inhalation was stopped.
# [3] = biological target: T1, specific receptor Or35a and the specific receptor Or83b; test: Patch clamp experiment (whole-cell recordings) in neurons of mouse brain slices expressing the specific receptor of 2-pentanone; format: cell-based; conditions: addition of 2-pentanone, 300 μm brain slices of C57 mice injected with Or35a/Or83b overexpression virus, FIG. 4B
# Method: 2. Patch clamp experiment: Adult C57 mice were anesthetized, fixed on a stereotaxic apparatus, and operated to expose the brain surface of the mice (1.5 mm behind the bregma, 1 mm aside, and injection depth of 2 mm). The overexpression virus (1 μl) constructed in Example 1 was injected into the mouse brain using a microinjector. After 2 weeks of feeding, the brains of mice were removed. The brain tissues at and near the injection site were cut into 300 μm tissue slices using a vibrating microtome and placed in artificial cerebrospinal fluid with a mixture of 5% CO2 and 95% 02, and after 1 h of incubation, the patch clamp experiment was performed. Using an Axon 700B amplifier, under infrared visualization, neurons with smooth surfaces and clear contours were selected for sealing, and whole-cell recordings were performed.
structure (smiles),measurement,setting,value
CCCC(C)=O [2-pentanone],intracellular calcium ion concentration,[1],significantly increased
same,time to reach cerebrospinal fluid through blood after inhalation,"[2]; rats given 2-pentanone for 3 min by inhalation, HPLC-MS of cerebrospinal fluid",3 min
same,time within which the concentration in cerebrospinal fluid decreased rapidly after the inhalation was stopped,"[2]; rats, after inhalation was stopped, HPLC-MS",3 to 5 min
same,neuronal firing rate,[3],significantly increased
